# How the values were obtained:
# [1] = target: T1, human androgen receptor (Homo sapiens, UniProt P10275); assay: Androgen receptor transactivation assay, antiandrogenic activity: inhibition of transactivation in the presence of 1 nM DHT (CHO-AR-pMMTV-LUC cells; Table 4); type: cell-based; details: for Emax: intrinsic activity relative to reference antiandrogen Hydroxyflutamide (set at 100%); for EC50: antiandrogenic activity, read-out: ant EC50
# T1 construct: expressed in transfected cells; host or cells: Chinese hamster ovary (CHO) cells, cell line CHO-AR-pMMTV-LUC 1G12-A5-CA
# T1 sequence (P10275 1-920): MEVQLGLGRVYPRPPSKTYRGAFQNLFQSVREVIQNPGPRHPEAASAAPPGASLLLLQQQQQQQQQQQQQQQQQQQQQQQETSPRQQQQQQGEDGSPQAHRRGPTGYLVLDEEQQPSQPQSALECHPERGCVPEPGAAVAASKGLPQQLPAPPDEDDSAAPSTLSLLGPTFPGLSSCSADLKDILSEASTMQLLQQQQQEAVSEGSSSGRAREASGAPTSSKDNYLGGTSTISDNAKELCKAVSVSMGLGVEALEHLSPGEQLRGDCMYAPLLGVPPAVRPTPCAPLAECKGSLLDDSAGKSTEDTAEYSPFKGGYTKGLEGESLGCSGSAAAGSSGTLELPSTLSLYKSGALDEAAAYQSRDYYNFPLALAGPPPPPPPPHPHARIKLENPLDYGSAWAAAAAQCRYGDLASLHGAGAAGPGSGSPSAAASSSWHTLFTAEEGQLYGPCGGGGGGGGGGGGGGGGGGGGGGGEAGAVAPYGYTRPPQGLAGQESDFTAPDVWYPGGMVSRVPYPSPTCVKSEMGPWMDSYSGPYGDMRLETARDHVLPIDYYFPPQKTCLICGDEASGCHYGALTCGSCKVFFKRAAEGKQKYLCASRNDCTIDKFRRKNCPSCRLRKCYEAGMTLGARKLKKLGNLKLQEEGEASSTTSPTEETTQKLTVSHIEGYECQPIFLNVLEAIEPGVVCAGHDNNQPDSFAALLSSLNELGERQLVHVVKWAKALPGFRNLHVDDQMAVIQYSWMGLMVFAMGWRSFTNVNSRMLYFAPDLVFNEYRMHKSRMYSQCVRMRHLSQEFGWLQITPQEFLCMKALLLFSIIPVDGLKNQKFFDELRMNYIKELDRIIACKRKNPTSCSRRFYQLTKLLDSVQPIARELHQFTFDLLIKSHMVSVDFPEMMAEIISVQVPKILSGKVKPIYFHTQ
# Procedure: (§1) Compounds were tested for their Androgen Receptor activity in a transactivation assay and in a binding assay.
# (§2) The (anti-)androgenic activity of test compounds (EC50 and intrinsic activity) was determined in an in vitro bioassay of Chinese hamster ovary (CHO) cells stably transfected with the human androgen receptor expression plasmid and a reporter plasmid in which the MMTV-promoter is linked to the luciferase reporter gene. The cell-line CHO-AR-pMMTV-LUC 1G12-AS-CA is described in Schoonen et al. (2000), Journal of Steroid Biochemistry and Molecular Biology 74(4):213-222. The antiandrogenic activity of a test compound was determined by the inhibition of the transactivation via the androgen receptor of the enzyme luciferase in the presence of 1 nM DHT (5 α-dihydrotestosterone, 17β-hydroxy-5α-androstan-3-one). Intrinsic activity of antiandrogenic activity was determined in the presence of the reference antiandrogen 2-Hydroxy-2-methyl-N-(4-nitro-3-trifluoromethyl-phenyl)-propionamide (Hydroxyflutamide), and set at 100%. For androgenic activity, maximal intrinsic activity in the presence of 100 nM DHT was set at 100%. Table 4 Androgen receptor activity
# [2] = system: cytoplasmic human androgen receptor; assay: Competitive binding to cytoplasmic human androgen receptor from recombinant CHO cells (relative binding affinity); details: relative to DHT; cytosol of CHO-AR-pMMTV-LUC 1G12-A5-CA cells
# Text: Determination of competitive binding to cytoplasmic human androgen receptor from recombinant CHO cells is used to estimate the relative binding affinity (RBA) of a test compound for androgen receptors present in the cytosol prepared of the recombinant CHO cell-line, CHO-AR-pMMTV-LUC 1G12-A5-CA.
# [3] = target: T1, human androgen receptor; assay: cell-based
# Procedure: as §1, §2
# [4] = target: T1, human androgen receptor; assay: Androgen receptor transactivation assay, androgenic activity in the presence of 0.1 µmol/l onapristone (CHO-AR-pMMTV-LUC cells; Table 5); type: cell-based; details: for ago efficacy: maximal intrinsic activity in the presence of 100 nM DHT set at 1.00; for ago potency: potency expressed as percentage of DHT activity
# Procedure: The androgenic activity (EC50, potency, and efficacy) of the compounds in Table 5 was determined in an in vitro bioassay of Chinese hamster ovary (CHO) cells stably transfected with the human androgen receptor expression plasmid and a reporter plasmid in which the MMTV promotor is linked to the luciferase reporter gene. The cell line CHO-AR-pMMTV-LUC 1G12-A5-CA is described in Schoonen et al. (J. Steroid Biochem. Molec. Biol. […]; 74: 213-222). The androgen receptor activity of compounds was determined in the presence of 0.1 µmol/l onapristone. The maximal efficacy in the presence of 100 nmol/l DHT was set as 100%. The potencies are expressed as percentage of DHT activity. Table 5 Androgen receptor activity
# [5] = in the presence of 1 nM DHT, read-out: ant efficacy
# [6] = androgenic activity, CHO-AR-pMMTV-LUC cells, read-out: ago EC50
SMILES,"Emax [1, 5]",ago efficacy [4],ago potency [4],also measured
COc1ccc2c(Sc3ccccc3[N+](=O)[O-])cn(Cc3ccccc3)c2c1 [Compound 92],< 20%,–,–,relative binding affinity (RBA) [2]: > 1%
COc1ccc2c(Sc3ccccc3OC)cn(Cc3cc(F)cc(F)c3)c2c1 [Compound 21],< 20%,–,–,"EC50 ([1]; in the presence of 1 nM DHT): > 10000 nM; EC50 [3, 6]: 5 to 100 nM"
O=[N+]([O-])c1ccccc1Sc1cn(Cc2cc(F)cc(F)c2)c2cccc(F)c12 [Compound 51],< 20%,–,–,EC50 [3]: 5 to 100 nM
"COc1ccc2c(Sc3ccccc3C(N)=O)cn(Cc3cc(F)cc(F)c3)c2c1 [Compound 18, 2-[1-(3,5-Difluoro-benzyl)-6-methoxy-1H-indol-3-ylsulfanyl]-benzamide]",–,–,–,"Emax ([1]; read-out: ant efficacy, in the presence of 1 nM DHT): 20 to 50%; EC50 [3, 6]: > 10000 nM"
O=[N+]([O-])c1ccccc1Sc1cn(Cc2cc(F)cc(F)c2)c2ccccc12 [Compound 52],< 20%,–,–,EC50 [3]: < 5 nM
O=[N+]([O-])c1ccccc1Sc1cn(Cc2cc(F)cc(F)c2)c2ccc(O)cc12 [Compound 56],< 20%,–,–,"EC50 ([1]; in the presence of 1 nM DHT): > 10000 nM; Emax ([3]; maximal intrinsic activity in the presence of 100 nM DHT set at 1.00, read-out: ago efficacy): < 20%"
"Cn1cnc(S(=O)(=O)Nc2ccc3c(Sc4ccccc4[N+](=O)[O-])cn(Cc4cc(F)cc(F)c4)c3c2)c1 [Compound 108, 1-Methyl-1H-imidazole-4-sulfonic acid [1-(3,5-difluoro-benzyl)-3-(2-nitro-phenylsulfanyl)-1H-indol-6-yl]-amide]",–,++ (≥0.80),+ (between 1% and 5%),–
"O=C(NC1CC1)c1ccc2c(Sc3ccccc3[N+](=O)[O-])cn(Cc3cccnc3)c2c1 [Compound 114, 3-(2-Nitro-phenylsulfanyl)-1-pyridin-3-ylmethyl-1H-indole-6-carboxylic acid cyclopropylamide]",–,++ (≥0.80),+ (between 1% and 5%),–
"CNC(=O)c1ccc2c(Sc3ccccc3[N+](=O)[O-])cn(Cc3cccnc3)c2c1 [Compound 112, 3-(2-Nitro-phenylsulfanyl)-1-pyridin-3-ylmethyl-1H-indole-6-carboxylic acid methylamide]",–,± (between 0.20 and 0.50),+ (between 1% and 5%),–
"COc1ccc2c(Sc3ccccc3[N+](=O)[O-])cn(Cc3cc(F)c(F)c(F)c3)c2c1 [Compound 94, 6-Methoxy-3-(2-nitro-phenylsulfanyl)-1-(3,4,5-trifluoro-benzyl)-1H indole]",–,++ (≥0.80),+ (between 1% and 5%),–

# Source: patent EP1585727B1, “INDOLES USEFUL IN THE TREATMENT OF ANDROGEN-RECEPTOR RELATED DISEASES” (priority 2002, dated 2004)
